Results taken from ChEMBL document CHEMBL1156482, “Molecular mechanism of action of monocyclam versus bicyclam non-peptide antagonists in the CXCR4 chemokine receptor” (J Biol Chem, 2007).
The source made the active and inactive calls. No cut-off for these calls is given here.

How the values were obtained:
[1] = system: Human immunodeficiency virus 1; assay: Antiviral activity against HIV1 NL43 infected in U87.CD4 cells expressing human CXCR4 D171N/D262N mutant; type: functional, organism-based
[2] = system: Human immunodeficiency virus 1; assay: Antiviral activity against HIV1 clinical isolate 10 infected in U87.CD4 cells expressing human CXCR4 D171ND262N mutant; type: functional, organism-based; conditions: Human immunodeficiency virus 1, U87.CD4
[3] = target: C-X-C chemokine receptor type 4 (Homo sapiens, UniProt P61073); assay: Displacement of [125I]12G5 antibody from human wild type CXCR4 expressed in COS7 cells; type: cell-based, COS-7
Chain of C-X-C chemokine receptor type 4 (Homo sapiens, UniProt P61073) (P61073 whole entry, the tested form may be a part): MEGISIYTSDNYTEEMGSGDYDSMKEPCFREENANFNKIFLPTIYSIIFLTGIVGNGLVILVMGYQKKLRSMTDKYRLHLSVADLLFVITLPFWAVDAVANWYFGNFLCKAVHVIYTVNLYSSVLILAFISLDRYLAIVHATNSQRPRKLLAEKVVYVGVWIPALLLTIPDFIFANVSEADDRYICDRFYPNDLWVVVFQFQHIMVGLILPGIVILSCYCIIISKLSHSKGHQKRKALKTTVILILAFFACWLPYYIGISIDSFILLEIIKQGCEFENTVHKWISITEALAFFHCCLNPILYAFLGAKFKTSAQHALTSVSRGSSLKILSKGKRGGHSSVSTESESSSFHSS

[4] = system: C-X-C chemokine receptor type 4 (Homo sapiens), P61073 [D171N]; assay: Displacement of [125I]12G5 antibody from transmembrane domain 4 of human CXCR4 D171N mutant expressed in COS7 cells; type: cell-based; conditions: COS-7
[5] = system: C-X-C chemokine receptor type 4 (Homo sapiens), P61073 [F174A]; assay: (§1) Displacement of [125I]12G5 antibody from transmembrane domain 4 of human CXCR4 F174A mutant expressed in COS7 cells; type: cell-based; conditions: COS-7
[6] = target: C-X-C chemokine receptor type 4 (Homo sapiens, UniProt P61073, F174A); assay: as §1; type: cell-based, COS-7
[7] = system: C-X-C chemokine receptor type 4 (Homo sapiens), P61073 [N176A]; assay: (§2) Displacement of [125I]12G5 antibody from extracellular loop 2 of human CXCR4 N176A mutant expressed in COS7 cells; type: cell-based; conditions: COS-7
Chain of C-X-C chemokine receptor type 4 (Homo sapiens), P61073 [N176A] (P61073 whole entry N176A): as the sequence (P61073 whole entry, the tested form may be a part) above, with N176A counted along it

[8] = target: C-X-C chemokine receptor type 4 (Homo sapiens, UniProt P61073, N176A); assay: as §2; type: cell-based, COS-7
Chain of C-X-C chemokine receptor type 4 (Homo sapiens, UniProt P61073, N176A) (P61073 whole entry N176A, the tested form may be a part): as the sequence (P61073 whole entry, the tested form may be a part) above, with N176A counted along it

[9] = system: C-X-C chemokine receptor type 4 (Homo sapiens), P61073 [Q200W]; assay: (§3) Displacement of [125I]12G5 antibody from transmembrane domain 5 of human CXCR4 Q200W mutant expressed in COS7 cells; type: cell-based; conditions: COS-7
Chain of C-X-C chemokine receptor type 4 (Homo sapiens), P61073 [Q200W] (P61073 whole entry Q200W, the tested form may be a part): as the sequence (P61073 whole entry, the tested form may be a part) above, with Q200W counted along it

[10] = target: T1, C-X-C chemokine receptor type 4 (Homo sapiens, UniProt P61073, Q200W); assay: as §3; type: cell-based, COS-7
T1 sequence (P61073 whole entry Q200W, the tested form may be a part): as the sequence (P61073 whole entry, the tested form may be a part) above, with Q200W counted along it

[11] = system: C-X-C chemokine receptor type 4 (Homo sapiens), P61073 [G207W]; assay: (§4) Displacement of [125I]12G5 antibody from transmembrane domain 5 of human CXCR4 G207W mutant expressed in COS7 cells; type: cell-based; conditions: COS-7
[12] = target: C-X-C chemokine receptor type 4 (Homo sapiens, UniProt P61073, G207W); assay: as §4; type: cell-based, COS-7
[13] = system: C-X-C chemokine receptor type 4 (Homo sapiens), P61073 [Y255A]; assay: (§5) Displacement of [125I]12G5 antibody from transmembrane domain 6 of human CXCR4 Y255A mutant expressed in COS7 cells; type: cell-based; conditions: COS-7
Chain of C-X-C chemokine receptor type 4 (Homo sapiens), P61073 [Y255A] (P61073 whole entry Y255A, the tested form may be a part): as the sequence (P61073 whole entry, the tested form may be a part) above, with Y255A counted along it

[14] = target: C-X-C chemokine receptor type 4 (Homo sapiens, UniProt P61073, Y255A); assay: as §5; type: cell-based, COS-7
[15] = system: C-X-C chemokine receptor type 4 (Homo sapiens), P61073 [T287A]; assay: (§6) Displacement of [125I]12G5 antibody from transmembrane domain 7 of human CXCR4 T287A mutant expressed in COS7 cells; type: cell-based; conditions: COS-7
[16] = target: C-X-C chemokine receptor type 4 (Homo sapiens, UniProt P61073, T287A); assay: as §6; type: cell-based, COS-7
[17] = system: C-X-C chemokine receptor type 4 (Homo sapiens), P61073 [I259W]; assay: (§7) Displacement of [125I]12G5 antibody from transmembrane domain 6 of human CXCR4 I259W mutant expressed in COS7 cells; type: cell-based; conditions: COS-7
Chain of C-X-C chemokine receptor type 4 (Homo sapiens), P61073 [I259W] (P61073 whole entry I259W, the tested form may be a part): as the sequence (P61073 whole entry, the tested form may be a part) above, with I259W counted along it

[18] = target: C-X-C chemokine receptor type 4 (Homo sapiens, UniProt P61073, I259W); assay: as §7; type: cell-based, COS-7
Chain of C-X-C chemokine receptor type 4 (Homo sapiens, UniProt P61073, I259W) (P61073 whole entry I259W): as the sequence (P61073 whole entry, the tested form may be a part) above, with I259W counted along it

[19] = system: C-X-C chemokine receptor type 4 (Homo sapiens), P61073 [H113A]; assay: (§8) Antagonist activity at human CXCR4 H113A mutant expressed in COS7 cells coexpressing G protein Gqi4myr assessed as inhibition of CXCL12-induced phosphatidylinositol turnover; type: functional, cell-based; conditions: COS-7
Chain of C-X-C chemokine receptor type 4 (Homo sapiens), P61073 [H113A] (P61073 whole entry H113A): as the sequence (P61073 whole entry, the tested form may be a part) above, with H113A counted along it

[20] = target: C-X-C chemokine receptor type 4 (Homo sapiens, UniProt P61073, H113A); assay: as §8; type: functional, cell-based, COS-7
Chain of C-X-C chemokine receptor type 4 (Homo sapiens, UniProt P61073, H113A) (P61073 whole entry H113A): as the sequence (P61073 whole entry, the tested form may be a part) above, with H113A counted along it

[21] = system: C-X-C chemokine receptor type 4 (Homo sapiens), P61073 [F172A]; assay: (§9) Antagonist activity at human CXCR4 F172A mutant expressed in COS7 cells coexpressing G protein Gqi4myr assessed as inhibition of CXCL12-induced phosphatidylinositol turnover; type: functional, cell-based; conditions: COS-7
[22] = target: C-X-C chemokine receptor type 4 (Homo sapiens, UniProt P61073, F172A); assay: as §9; type: functional, cell-based, COS-7
[23] = system: C-X-C chemokine receptor type 4 (Homo sapiens), P61073 [V196A]; assay: (§10) Antagonist activity at human CXCR4 V196A mutant expressed in COS7 cells coexpressing G protein Gqi4myr assessed as inhibition of CXCL12-induced phosphatidylinositol turnover; type: functional, cell-based; conditions: COS-7
[24] = target: C-X-C chemokine receptor type 4 (Homo sapiens, UniProt P61073, V196A); assay: as §10; type: functional, cell-based, COS-7
[25] = system: C-X-C chemokine receptor type 4 (Homo sapiens), P61073 [Q200W]; assay: (§11) Antagonist activity at human CXCR4 Q200W mutant expressed in COS7 cells coexpressing G protein Gqi4myr assessed as inhibition of CXCL12-induced phosphatidylinositol turnover; type: functional, cell-based; conditions: COS-7
[26] = target: T1, C-X-C chemokine receptor type 4; assay: as §11; type: functional, cell-based, COS-7
[27] = system: C-X-C chemokine receptor type 4 (Homo sapiens), P61073 [Q200A]; assay: (§12) Antagonist activity at human CXCR4 Q200A mutant expressed in COS7 cells coexpressing G protein Gqi4myr assessed as inhibition of CXCL12-induced phosphatidylinositol turnover; type: functional, cell-based; conditions: COS-7
[28] = target: C-X-C chemokine receptor type 4 (Homo sapiens, UniProt P61073, Q200A); assay: as §12; type: functional, cell-based, COS-7
[29] = system: C-X-C chemokine receptor type 4 (Homo sapiens), P61073 [H203A]; assay: (§13) Antagonist activity at human CXCR4 H203A mutant expressed in COS7 cells coexpressing G protein Gqi4myr assessed as inhibition of CXCL12-induced phosphatidylinositol turnover; type: functional, cell-based; conditions: COS-7
Chain of C-X-C chemokine receptor type 4 (Homo sapiens), P61073 [H203A] (P61073 whole entry H203A): as the sequence (P61073 whole entry, the tested form may be a part) above, with H203A counted along it

[30] = target: C-X-C chemokine receptor type 4 (Homo sapiens, UniProt P61073, H203A); assay: as §13; type: functional, cell-based, COS-7
Chain of C-X-C chemokine receptor type 4 (Homo sapiens, UniProt P61073, H203A) (P61073 whole entry H203A, the tested form may be a part): as the sequence (P61073 whole entry, the tested form may be a part) above, with H203A counted along it

[31] = system: C-X-C chemokine receptor type 4 (Homo sapiens), P61073 [I259A]; assay: (§14) Antagonist activity at transmembrane domain 6 of human CXCR4 I259A mutant expressed in COS7 cells coexpressing G protein Gqi4myr assessed as inhibition of CXCL12-induced phosphatidylinositol turnover; type: functional, cell-based; conditions: COS-7
[32] = target: C-X-C chemokine receptor type 4 (Homo sapiens, UniProt P61073, I259A); assay: as §14; type: functional, cell-based, COS-7
[33] = system: C-X-C chemokine receptor type 4 (Homo sapiens), P61073 [H281A]; assay: Antagonist activity at human CXCR4 H281A mutant expressed in U87.CD4 cells assessed as inhibition of CXCL12-induced calcium mobilization; type: functional, cell-based
Chain of C-X-C chemokine receptor type 4 (Homo sapiens), P61073 [H281A] (P61073 whole entry H281A): as the sequence (P61073 whole entry, the tested form may be a part) above, with H281A counted along it

[34] = system: Human immunodeficiency virus 1; assay: Antiviral activity against HIV1 NL43 infected in U87.CD4 cells expressing human wild type CXCR4; type: functional, organism-based; conditions: Human immunodeficiency virus 1, NL43, U87.CD4
[35] = system: Human immunodeficiency virus 1; assay: Antiviral activity against HIV1 NDK infected in U87.CD4 cells expressing human wild type CXCR4; type: functional, organism-based; conditions: Human immunodeficiency virus 1, NDK
[36] = system: Human immunodeficiency virus 1; assay: Antiviral activity against HIV1 clinical isolate 10 infected in U87.CD4 cells expressing human wild type CXCR4; type: functional, organism-based; conditions: Human immunodeficiency virus 1, U87.CD4
[37] = system: Human immunodeficiency virus 1; assay: Antiviral activity against HIV1 NL43 infected in U87.CD4 cells expressing human CXCR4 D262N mutant; type: functional, organism-based; conditions: Human immunodeficiency virus 1, NL43, U87.CD4
[38] = system: Human immunodeficiency virus 1; assay: Antiviral activity against HIV1 NDK infected in U87.CD4 cells expressing human CXCR4 H281A mutant; type: functional, organism-based; conditions: Human immunodeficiency virus 1, NDK
[39] = system: Human immunodeficiency virus 1; assay: Antiviral activity against HIV1 clinical isolate 10 infected U87.CD4 cells expressing human CXCR4 E288A mutant; type: functional, organism-based; conditions: Human immunodeficiency virus 1, U87.CD4

c1ccc(CNCc2ccc(CN3CCCNCCNCCCNCC3)cc2)nc1
Activity [1]: Active
IC50 [2]: 4.04 µM
Ki [3]: 0.11 µM
logKi ([3]; COS-7): -6.95
logKi [4]: -5.49
logKi [5]: -6.01
Ki [6]: 0.98 µM
logKi [7]: -6.98
Ki [8]: 0.1 µM
logKi [9]: -5.94
Ki [10]: 1.2 µM
logKi [11]: -6.88
Ki [12]: 0.13 µM
logKi [13]: -6.35
Ki [14]: 0.45 µM
logKi [15]: -5.71
Ki [16]: 2 µM
logKi [17]: -4.75
Ki [18]: 18 µM
logIC50 [19]: -6.89
Ki [20]: 0.13 µM
logIC50 [21]: -7.93
Ki [22]: 0.01 µM
logIC50 [23]: -7.71
Ki [24]: 0.2 µM
logIC50 [25]: -6.65
Ki [26]: 0.22 µM
logIC50 [27]: -6.84
Ki [28]: 0.15 µM
logIC50 [29]: -7.43
Ki [30]: 0.04 µM
logIC50 [31]: -7.55
Ki [32]: 0.03 µM
Activity [33]: inactive
IC50 [34]: 36 µM
IC50 [35]: 2.7 µM
IC50 [36]: 4.7 µM
IC50 [37]: 0.038 µM
IC50 [38]: 0.037 µM
IC50 [39]: 1.57 µM
